This is an account of results in patent publication US8173694B2, “Therapeutic agent” (Pentraxin Therapeutics Limited, priority 2001, dated 2012).

“Also recorded” adds a separate entry of the source.

For one experiment, the target named is T1, SAP in whole human serum (Homo sapiens, UniProt P02743).
T1 construct: Aliquots of a single pool of whole normal human serum, containing SAP and CRP; from tissue; host or cells: pooled whole normal human serum
Kind of experiment: Size exclusion chromatography of whole human serum mixed with drug: SAP. The experiment is classed as binding. The procedure:
Aliquots of a single pool of whole normal human serum, containing SAP and CRP, were mixed with (R)-1-[6-(R)-2-Carboxy-pyrrolidin-1-yl]-6-oxo-hexanoyl]pyrrolidine-2-carboxylic acid at the molar ratios shown, with respect to pentraxin protomer, and analysed by size exclusion chromatography precisely as described previously (14). The mixtures and the column eluants contained either no calcium ions or 2 mM calcium, and the concentrations of drug appropriate to maintain the molar ratios indicated above. SAP in whole serum is a stable soluble pentameric assembly of protomers, stabilised by the presence of the normal high concentration of serum albumin. However as SAP is separated from serum albumin during gel filtration with a calcium containing eluant, the SAP autoaggregates and elutes entirely as high molecular weight polymers in the void volume of the column. This is because, in the absence of a specific ligand to which it can bind, isolated human SAP is insoluble in the presence of calcium (14). However in the absence of calcium, where no ligand binding or autoaggregation can occur, SAP forms stable decamers, providing an excellent marker for the elution volume of this molecular assembly (14). Human CRP is a stable pentamer either in the presence or absence of calcium and thus provides a robust marker for the elution position of that molecular form (14).
A general note: SEC sorts molecules by how far they enter the pores of the column.

For experiment [1], the target named is serum amyloid P component (SAP) (Homo sapiens, UniProt P02743). As to the kind of experiment: Inhibition of SAP binding to amyloid fibrils in vitro. An excerpt:
A method for screening and testing inhibitors of serum amyloid P component (SAP) binding to amyloid fibrils in vitro was devised and used in collaboration with F Hoffmann-La Roche Ltd to identify a suitable lead molecule for drug development. A library of candidate compounds was screened accordingly. The subsequent collaborative medicinal chemistry programme led to synthesis of a family of dicarboxylic acid, pyrrolidone ring containing molecules, of which the most studied is (R)-1-[6-(R)-2-Carboxy-pyrrolidin-1-yl]-6-oxo-hexanoyl]pyrrolidine-2-carboxylic acid. This molecule and related compounds (EP-A-0915088) are modestly potent inhibitors of SAP binding to amyloid fibrils in vitro, with IC50 values around 0.5-1.0 μM.
Further studies determined that each of the following bis-D-Proline compounds were tested for their ability to deplete SAP in vivo as described above. Each of the compounds identified below successfully depleted SAP. In addition, certain of the compounds were further tested for in vitro inhibition of binding of SAP to amyloid fibrils in accordance with the protocol provided in EP 0915088 at page 10, as referenced above. The results are shown in the second column below, where applicable.

A further experiment deals with 123I-SAP (Homo sapiens, UniProt P02743). Kind of experiment: Quantitative whole body 123I-SAP scintigraphy in patients during drug infusion. It is filed as in vivo. An excerpt:
This patient, with a modest load of AL amyloid in the spleen and kidneys, had notable blood pool background of tracer in the heart and circulation before administration of the drug.
This patient, with modest load of AL amyloid in the spleen and kidneys, had notable blood pool background of tracer in the heart and circulation before administration of the drug.
Direct evidence for depletion of SAP from amyloid in the organs and for the mechanism of action of (R)-1-[6-(R)-2-Carboxy-pyrrolidin-1-yl]-6-oxo-hexanoyl]pyrrolidine-2-carboxylic acid was obtained by quantitative whole body scintigraphy using ^123I-SAP as a tracer. Each patient received a standard dose of ^123I-SAP 24 h before the (R)-1-[6-(R)-2-Carboxy-pyrrolidin-1-yl]-6-oxo-hexanoyl]pyrrolidine-2-carboxylic acid infusion started and was scanned immediately before treatment to provide a baseline image and values for localisation of tracer to the amyloid deposits. They were then scanned at intervals thereafter, up to the end of the 48 h infusion. (R)-1-[6-(R)-2-Carboxy-pyrrolidin-1-yl]-6-oxo-hexanoyl]pyrrolidine-2-carboxylic acid caused dramatic clearance of tracer from the plasma, exactly paralleling both in the scintigraphic images and in counting of blood samples, the SAP depletion monitored by immunoassay of the serum. […] At the same time there was a marked decrease in the retention of tracer in amyloid deposits elsewhere, exemplified by the spleen and kidneys, in contrast to the usual situation in control untreated amyloidosis patients (Table 2; FIG. 6).
All patients had systemic AL amyloidosis and received a standard intravenous tracer dose of ^123I-SAP at time zero. After whole body quantitative scintigraphic imaging at 24 h, uptake in liver and spleen were taken as 100% for each individual. Intravenous infusion of the drug (R)-1-[6-(R)-2-Carboxy-pyrrolidin-1-yl]-6-oxo-hexanoyl]pyrrolidine-2-carboxylic acid was then started and scintigraphy with organ counting was repeated at 48 h. The controls received no treatment. Significance of differences between the two groups was sought by t-test.

The target in a further experiment is T2, circulating SAP (Mus musculus, UniProt P12246).
T2 construct: all the endogenous mouse SAP in the deposits; from tissue; host or cells: mice in vivo: amyloidotic organs, or plasma of normal wild type mice
T2 sequence (P12246 21-224): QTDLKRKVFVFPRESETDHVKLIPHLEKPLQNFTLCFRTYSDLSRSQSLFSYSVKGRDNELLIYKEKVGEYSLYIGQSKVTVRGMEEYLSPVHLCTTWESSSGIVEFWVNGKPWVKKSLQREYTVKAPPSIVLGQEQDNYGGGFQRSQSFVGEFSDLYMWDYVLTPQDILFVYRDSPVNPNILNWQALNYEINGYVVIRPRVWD
As to the kind of experiment: Circulating SAP in normal wild type mice. The experiment is classed as in vivo. The conditions noted are these: none of the routes caused depletion. The procedure:
When (R)-1-[6-(R)-2-Carboxy-pyrrolidin-1-yl]-6-oxo-hexanoyl]pyrrolidine-2-carboxylic acid was administered by continuous infusion for 5 days via an indwelling osmotic pump, it dissociated both radiolabelled human SAP tracer, with which the amyloid deposits had previously been loaded, and all the endogenous mouse SAP in the deposits (FIG. 3). […] The SAP-(R)-1-[6-(R)-2-Carboxy-pyrrolidin-1-yl]-6-oxo-hexanoyl]pyrrolidine-2-carboxylic acid complex is evidently recognised as abnormal in vivo and swiftly removed from the circulation, but is apparently formed and/or cleared less efficiently in vivo with mouse SAP compared to human SAP.

Setting [2] is: drug:protein 100:1, calcium present.
The mark [3] stands for this setting: 24 h after starting infusion, second patient.
[4] abbreviates: 48 h after starting infusion, second patient.
[5] abbreviates: 48 h after tracer injection (drug infusion started at 24 h), 24 h uptake = 100%, 7 patients.

123I-SAP, sequence (P02743 20-223): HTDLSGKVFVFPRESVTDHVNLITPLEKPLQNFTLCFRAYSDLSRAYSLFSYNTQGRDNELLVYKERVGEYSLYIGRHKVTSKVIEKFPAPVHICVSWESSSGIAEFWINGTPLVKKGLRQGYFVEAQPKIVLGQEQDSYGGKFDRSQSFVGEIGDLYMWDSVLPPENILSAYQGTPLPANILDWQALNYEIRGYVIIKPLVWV
T1 sequence (P02743 20-223): as above
serum amyloid P component (SAP), sequence (P02743 20-223): as above

In general, IC50 refers to the concentration at which inhibition is half-maximal. `O=C(O)[C@H]1CCCN1C(=O)CCCCC(=O)N1CCC[C@@H]1C(=O)O` [(R)-1-[6-(R)-2-Carboxy-pyrrolidin-1-yl]-6-oxo-hexanoyl]pyrrolidine-2-carboxylic acid]: the Molecular assembly entry at SAP in whole human serum (drug:protein 1:1, calcium present) is reported as “some of the SAP was solubilised as stable drug-decamer complexes; also recorded: High MW”; at SAP in whole human serum (drug:protein 10:1, calcium present) it was “High MW; also recorded: Decamer”; on SAP in whole human serum (setting [2]) it was “all the SAP was in this form; also recorded: Decamer”. In addition, the “Elution volume” value at SAP in whole human serum (setting [2]) is 10.0 to 10.5 mL. Besides, the “Potency as inhibitor of SAP binding to amyloid fibrils relative to original lead compound” value in experiment [1] (compared with 1-(3-Mercapto-2-methyl-1-oxopropyl)-D-proline) is “more potent inhibitors than the original lead compound”. Besides, the IC50 in experiment [1] (read-out: IC50, inhibition of SAP binding to amyloid fibrils in vitro) was 500 to 1000 nM. The “Blood pool background of 123I-SAP tracer” value is “completely absent” on 123I-SAP (6 h after starting infusion, first patient); “completely absent” at 123I-SAP (24 h and 48 h after starting infusion, second patient). For the same compound, the “Kidney counts, of time 0” value at 123I-SAP (setting [3]) turned out to be 77%; at 123I-SAP (setting [4]), 50%. The “Spleen counts, of time 0” value at 123I-SAP (setting [3]) is 85%; at 123I-SAP (setting [4]), 54%. For the same compound, the “123I-SAP retention [mean (SD)%], Liver” value at 123I-SAP (setting [5]) was 125 (20) %. Also, on 123I-SAP (setting [5]), the “123I-SAP retention [mean (SD)%], Spleen” value was 54 (18) %. In addition, on 123I-SAP (by 6 h after starting treatment and persisting thereafter), the “Blood pool signal of 123I-SAP tracer” value is listed as “virtually disappeared”. The “Routes that caused depletion of circulating SAP in normal wild type mice” value on circulating SAP is reported as “neither oral administration, nor intermittent injection or continuous infusion”.
